Test results as given in publication PMC6379670, “An ultra-high affinity ligand of HIV-1 TAR reveals the RNA structure recognized by P-TEFb” (Nucleic Acids Research, 2018).
Where two headings read alike, the source gives them in different places. Non-standard residues stand in square brackets, D forms with d. Residues, ends and D or L forms follow the SMILES beside them. hArg = N=C(N)NCCCC[C@H](N)C(=O)O

What was measured:
[1] = test system: JB181 (synthetic); test: EMSA
[2] = target: HIV-1 TAR RNA; type: binding; conditions: EMSA, positional scanning library, Table S1
Procedure: (§1) Electro Mobility Shift Assays (EMSA) and 2-aminopurine fluorescence ([35]) were used to measure peptide binding. For EMSA, all RNAs were 5′-dephosphorylated ([25],[26]) and 5′-rephosphorylated using T4 Polynucleotide Kinase (PNK); shifts were performed and analyzed as previously described ([14]). The P-TEFb/Tat1:57/AFF4 binding assays were run as described ([11]), with protein samples generously donated by Drs Ursula Schulze-Gahmen and James Hurley, but binding buffers contained 250× fold excess yeast tRNA. JB181-bound samples were prepared with 3× excess labeled HIV-TAR prior to titration with the pre-formed P-TEFb/Tat1:57/AFF4 complex.
(§2) Fig. S1. a) HIV-1 TAR, BIV TAR and 7SK-SL4 RNAs have similar secondary structures, but the JB181 peptide discriminates between them. […]
(§3) tightly than BIV TAR (3.3 nM) or 7SK (>3 μM) RNAs. b) EMSA of representative JB-peptides with 32P radiolabeled HIV-1 TAR RNA ([RNA]=75pM). The peptide concentration increases from left to right, as indicated. The dissociation constant can be estimated by the peptide concentration where there is an approximate 1:1 ratio (as established by visual inspection) between free RNA and complex, since the RNA concentration is much lower than the KD.
(§4) (1 picture or pasted object on this page, not shown here)

[3] = target: BIV TAR RNA; test: EMSA binding to BIV TAR; conditions: positional scanning library, Table S1
Procedure: as §1, §2, §3, §4

[4] = with tRNA, read-out: Kd (nM) w/tRNA
[5] = without tRNA, read-out: Kd (nM) no tRNA

Molecule | Kd [2, 4] | Kd [2, 5] | Kd [3] | Kd [1] | further results
7SK-SL4 | – | – | – | – | Kd ([1]; EMSA: 32P RNA (75-100 pM), 250-fold excess tRNA, buffer as in cited work (not given), 2-AP fluorescence: 100 fM RNA, NMR: 10 mM K phosphate pH 6.5, 10 mM NaCl …): > 3000 nM
CC[C@H](C)[C@@H]1NC(=O)[C@H](CCCNC(=N)N)NC(=O)[C@H](CCCNC(=N)N)NC(=O)CNC(=O)[C@H](CCCCN)NC(=O)[C@H](CCCNC(=N)N)NC(=O)[C@H]([C@@H](C)O)NC(=O)[C@H](CCCNC(=N)N)NC(=O)[C@H](C(C)C)NC(=O)[C@H](CCCCN)NC(=O)[C@@H]2CCCN2C(=O)[C@H]2CCCN2C(=O)[C@H]([C@@H](C)CC)NC(=O)[C@H](CCCNC(=N)N)NC1=O [JB-60] (cyclo(KVRTRKGRRIRI[dP]P)) | 300 nM | 3 nM | > 5000 nM | – | –
CC[C@H](C)[C@@H]1NC(=O)[C@H](CCCNC(=N)N)NC(=O)[C@H](CCCNC(=N)N)NC(=O)CNC(=O)[C@H](CCCCN)NC(=O)[C@H](CCCNC(=N)N)NC(=O)[C@H]([C@@H](C)O)NC(=O)[C@H](CCCNC(=N)N)NC(=O)[C@H](Cc2ccc(O)cc2)NC(=O)[C@H](CCCNC(=N)N)NC(=O)[C@@H]2CCCN2C(=O)[C@H]2CCCN2C(=O)[C@H]([C@@H](C)CC)NC(=O)[C@H](CCCNC(=N)N)NC1=O [JB-62] (cyclo(RYRTRKGRRIRI[dP]P)) | 150 nM | 1 to 5 nM | 10 nM | – | –
CC[C@H](C)[C@@H]1NC(=O)[C@H](CCCNC(=N)N)NC(=O)[C@H](CCCNC(=N)N)NC(=O)CNC(=O)[C@H](CCCCN)NC(=O)[C@H](CCCNC(=N)N)NC(=O)[C@H]([C@@H](C)O)NC(=O)[C@H](CCCNC(=N)N)NC(=O)[C@H](CC(N)=O)NC(=O)[C@H](CCCNC(=N)N)NC(=O)[C@@H]2CCCN2C(=O)[C@H]2CCCN2C(=O)[C@H]([C@@H](C)CC)NC(=O)[C@H](CCCNC(=N)N)NC1=O [JB-63] (cyclo(RNRTRKGRRIRI[dP]P)) | 100 nM | 1 nM | < 1 nM | – | –
CC[C@H](C)[C@@H]1NC(=O)[C@H](CCCNC(=N)N)NC(=O)[C@H](CCCNC(=N)N)NC(=O)CNC(=O)[C@H](CCCCN)NC(=O)[C@H](CCCNC(=N)N)NC(=O)[C@H]([C@@H](C)O)NC(=O)[C@H](CCCNC(=N)N)NC(=O)[C@H]([C@@H](C)O)NC(=O)[C@H](CCCNC(=N)N)NC(=O)[C@@H]2CCCN2C(=O)[C@H]2CCCN2C(=O)[C@H]([C@@H](C)CC)NC(=O)[C@H](CCCNC(=N)N)NC1=O [JB-65] (cyclo(RTRTRKGRRIRI[dP]P)) | 50 nM | 1 nM | < 1 nM | – | –
CC[C@H](C)[C@@H]1NC(=O)[C@H](CCCNC(=N)N)NC(=O)[C@H](CCCNC(=N)N)NC(=O)CNC(=O)[C@H](CCCCN)NC(=O)[C@H](CCCNC(=N)N)NC(=O)[C@H]([C@@H](C)O)NC(=O)[C@H](CCCNC(=N)N)NC(=O)[C@H](C)NC(=O)[C@H](CCCNC(=N)N)NC(=O)[C@@H]2CCCN2C(=O)[C@H]2CCCN2C(=O)[C@H]([C@@H](C)CC)NC(=O)[C@H](CCCNC(=N)N)NC1=O [JB-66] (cyclo(RARTRKGRRIRI[dP]P)) | 100 nM | 1 nM | 1 nM | – | –
CC[C@H](C)[C@@H]1NC(=O)[C@H](CCCNC(=N)N)NC(=O)[C@H](C)NC(=O)[C@H](CCCNC(=N)N)NC(=O)[C@H](CCCNC(=N)N)NC(=O)CNC(=O)[C@H](CCCCN)NC(=O)[C@H](CCCNC(=N)N)NC(=O)[C@H]([C@@H](C)O)NC(=O)[C@H](CCCNC(=N)N)NC(=O)[C@H](C(C)C)NC(=O)[C@H](CCCNC(=N)N)NC(=O)[C@@H]2CCCN2C(=O)[C@H]2CCCN2C1=O [JB-75] (cyclo(RVRTRKGRRARI[dP]P)) | 300 nM | 5 nM | 1 to 5 nM | – | –
CC[C@H](C)[C@@H]1NC(=O)[C@H](CCCNC(=N)N)NC(=O)[C@H](C(C)C)NC(=O)[C@H](CCCNC(=N)N)NC(=O)[C@H](CCCNC(=N)N)NC(=O)CNC(=O)[C@H](CCCCN)NC(=O)[C@H](CCCNC(=N)N)NC(=O)[C@H]([C@@H](C)O)NC(=O)[C@H](CCCNC(=N)N)NC(=O)[C@H](C(C)C)NC(=O)[C@H](CCCNC(=N)N)NC(=O)[C@@H]2CCCN2C(=O)[C@H]2CCCN2C1=O [JB-76] (cyclo(RVRTRKGRRVRI[dP]P)) | < 50 nM | 1 nM | 1 nM | – | –
CC[C@H](C)[C@@H]1NC(=O)[C@H](CCCNC(=N)N)NC(=O)[C@H](CCCNC(=N)N)NC(=O)CNC(=O)[C@H](CCCCN)NC(=O)[C@H](CCCNC(=N)N)NC(=O)[C@H]([C@@H](C)O)NC(=O)[C@H](CCCNC(=N)N)NC(=O)[C@H](C(C)C)NC(=O)[C@H](CCCNC(=N)N)NC(=O)[C@@H]2CCCN2C(=O)[C@H]2CCCN2C(=O)[C@H]([C@@H](C)CC)NC(=O)[C@H](Cc2ccc(O)cc2)NC1=O [JB-78] (cyclo(RVRTRKGRRIYI[dP]P)) | > 1000 nM | – | – | – | –
CC[C@H](C)[C@@H]1NC(=O)[C@H](CCCNC(=N)N)NC(=O)[C@H](CCCNC(=N)N)NC(=O)CNC(=O)[C@H](CCCCN)NC(=O)[C@H](CCCNC(=N)N)NC(=O)[C@H]([C@@H](C)O)NC(=O)[C@H](CCCNC(=N)N)NC(=O)[C@H](C(C)C)NC(=O)[C@H](CCCNC(=N)N)NC(=O)[C@@H]2CCCN2C(=O)[C@H]2CCCN2C(=O)[C@H]([C@@H](C)CC)NC(=O)[C@H](Cc2c[nH]c3ccccc23)NC1=O [JB-79] (cyclo(RVRTRKGRRIWI[dP]P)) | > 1000 nM | – | – | – | –
CC[C@H](C)[C@@H]1NC(=O)[C@H](CCCNC(=N)N)NC(=O)[C@H](CCCNC(=N)N)NC(=O)CNC(=O)[C@H](CCCCN)NC(=O)[C@H](CCCNC(=N)N)NC(=O)[C@H]([C@@H](C)O)NC(=O)[C@H](CCCNC(=N)N)NC(=O)[C@H](C(C)C)NC(=O)[C@H](CCCNC(=N)N)NC(=O)[C@@H]2CCCN2C(=O)[C@H]2CCCN2C(=O)[C@H](C)NC(=O)[C@H](CCCNC(=N)N)NC1=O [JB-83] (cyclo(RVRTRKGRRIRA[dP]P)) | > 1000 nM | – | – | – | –
CC[C@H](C)[C@@H]1NC(=O)[C@H](CCCNC(=N)N)NC(=O)[C@H](CCCNC(=N)N)NC(=O)CNC(=O)[C@H](CCCCN)NC(=O)[C@H](CCCNC(=N)N)NC(=O)[C@H]([C@@H](C)O)NC(=O)[C@H](CCCNC(=N)N)NC(=O)[C@H](C(C)C)NC(=O)[C@H](CCCNC(=N)N)NC(=O)[C@@H]2CCCN2C(=O)[C@H]2CCCN2C(=O)[C@H](C(C)C)NC(=O)[C@H](CCCNC(=N)N)NC1=O [JB-84] (cyclo(RVRTRKGRRIRV[dP]P)) | 50 nM | 1 nM | 1 nM | – | –
CC[C@H](C)[C@@H]1NC(=O)[C@H](CCCNC(=N)N)NC(=O)[C@H](CCCNC(=N)N)NC(=O)CNC(=O)[C@H](CCCCN)NC(=O)[C@H](CCCNC(=N)N)NC(=O)[C@H]([C@@H](C)O)NC(=O)[C@H](CCCNC(=N)N)NC(=O)[C@H](C(C)C)NC(=O)[C@H](CCCCNC(=N)N)NC(=O)[C@@H]2CCCN2C(=O)[C@H]2CCCN2C(=O)[C@H]([C@@H](C)CC)NC(=O)[C@H](CCCNC(=N)N)NC1=O [KP-Y-01] (cyclo([hArg]VRTRKGRRIRI[dP]P)) | 150 nM | – | – | – | –
CC[C@H](C)[C@@H]1NC(=O)[C@H](CCCNC(=N)N)NC(=O)[C@H](CCCNC(=N)N)NC(=O)CNC(=O)[C@H](CCCCN)NC(=O)[C@H](CCCNC(=N)N)NC(=O)[C@H]([C@@H](C)O)NC(=O)[C@H](CCCCNC(=N)N)NC(=O)[C@H](C(C)C)NC(=O)[C@H](CCCNC(=N)N)NC(=O)[C@@H]2CCCN2C(=O)[C@H]2CCCN2C(=O)[C@H]([C@@H](C)CC)NC(=O)[C@H](CCCNC(=N)N)NC1=O [KP-Y-02] (cyclo(RV[hArg]TRKGRRIRI[dP]P)) | 200 nM | – | – | – | –
CC[C@H](C)[C@@H]1NC(=O)[C@H](CCCNC(=N)N)NC(=O)[C@H](CCCNC(=N)N)NC(=O)CNC(=O)[C@H](CCCCN)NC(=O)[C@H](CCCCNC(=N)N)NC(=O)[C@H]([C@@H](C)O)NC(=O)[C@H](CCCNC(=N)N)NC(=O)[C@H](C(C)C)NC(=O)[C@H](CCCNC(=N)N)NC(=O)[C@@H]2CCCN2C(=O)[C@H]2CCCN2C(=O)[C@H]([C@@H](C)CC)NC(=O)[C@H](CCCNC(=N)N)NC1=O [KP-Y-03] (cyclo(RVRT[hArg]KGRRIRI[dP]P)) | 200 nM | – | – | – | –
CC[C@H](C)[C@@H]1NC(=O)[C@H](CCCNC(=N)N)NC(=O)[C@H](CCCCNC(=N)N)NC(=O)CNC(=O)[C@H](CCCCN)NC(=O)[C@H](CCCNC(=N)N)NC(=O)[C@H]([C@@H](C)O)NC(=O)[C@H](CCCNC(=N)N)NC(=O)[C@H](C(C)C)NC(=O)[C@H](CCCNC(=N)N)NC(=O)[C@@H]2CCCN2C(=O)[C@H]2CCCN2C(=O)[C@H]([C@@H](C)CC)NC(=O)[C@H](CCCNC(=N)N)NC1=O [KP-Y-04] (cyclo(RVRTRKG[hArg]RIRI[dP]P)) | 75 nM | – | – | – | –
CC[C@H](C)[C@@H]1NC(=O)[C@H](CCCCNC(=N)N)NC(=O)[C@H](CCCNC(=N)N)NC(=O)CNC(=O)[C@H](CCCCN)NC(=O)[C@H](CCCNC(=N)N)NC(=O)[C@H]([C@@H](C)O)NC(=O)[C@H](CCCNC(=N)N)NC(=O)[C@H](C(C)C)NC(=O)[C@H](CCCNC(=N)N)NC(=O)[C@@H]2CCCN2C(=O)[C@H]2CCCN2C(=O)[C@H]([C@@H](C)CC)NC(=O)[C@H](CCCNC(=N)N)NC1=O [KP-Y-05] (cyclo(RVRTRKGR[hArg]IRI[dP]P)) | 100 nM | – | – | – | –
GGCUCGUGUAGCUCAUUAGCUCCGAGCC [BIV TAR] | – | – | – | 3.3 nM | –
HIV-1 TAR A35C | – | – | – | < 1.3 nM | –
HIV-1 TAR A35G, G28A | – | – | – | 11 nM | –
HIV-1 TAR A35G, G28C | – | – | – | 10 nM | –
HIV-1 TAR A35del | – | – | – | < 1.3 nM | –
HIV-1 TAR G32A, G36A | – | – | – | < 0.166 nM | –
HIV-1 TAR G33A, G34A, G21A | – | – | – | 70 nM | –
HIV-1 TAR U25C | – | – | – | 1 nM | –
